From patent US20080194585A1, “Fungicidal Pyrazine Derivatives” (priority 2005, published 2008)
Marks after values point to notes of the source that are not given here.

Assays:
Septoria tritici = assay: Test J: wheat leaf blotch, preventive spray on wheat seedlings; format: in vivo; details: 100 = 100% disease control, 0 = no control
Excerpt: A dash (-) indicates no test results.

[1] = test system: Puccinia recondita f. sp. tritici; assay: Test K: wheat leaf rust, preventive spray on wheat seedlings; details: 100 = 100% disease control, 0 = no control
[2] = test system: Erysiphe graminis f. sp. tritici; assay: Test L: wheat powdery mildew, preventive spray on wheat seedlings; details: 100 = 100% disease control, 0 = no control
Pythium aphanidermatum = assay: Test A: bluegrass pythium blight, preventive spray on bluegrass seedlings; details: 100 = 100% disease control, 0 = no control
[3] = test system: Colletotrichum orbiculare; assay: Test B: cucumber Colletotrichum anthracnose, preventive spray on cucumber seedlings; details: 100 = 100% disease control, 0 = no control
Phytophthora infestans = assay: whole plant or invertebrate; format: in vivo; details: 100 = 100% disease control
Rhizoctonia oryzae = assay: Test G: turf brown patch, preventive spray on creeping bent grass seedlings; details: 100 = 100% disease control, 0 = no control
Procedure: (the causal agent of turf brown patch) and incubated in a saturated atmosphere at 27° C. for 24 h, and then moved to a growth chamber at 27° C. for 5 days, after which disease ratings were made.

Botrytis cinerea = assay: Test E: tomato botrytis, preventive spray on tomato seedlings; details: 100 = 100% disease control, 0 = no control
fusarium graminearium = assay: Test I: wheat head scab, preventive spray on wheat seedlings; details: 100 = 100% disease control
Procedure: (the causal agent of wheat head scab) and incubated in a saturated atmosphere at 20° C. for 72 h, and then moved to a growth chamber at 22° C. for 5 days, after which disease ratings were made.

Plasmopara viticola = assay: Test D: grape downy mildew, spray after inoculation of grape seedlings; format: in vivo; details: 100 = 100% disease control
Excerpt: Upon removal, disease ratings were made. […] A dash (-) indicates no test results.

Septoria nodorum = assay: Test H: wheat glum blotch, preventive spray on wheat seedlings; details: 100 = 100% disease control, 0 = no control
Procedure: (the causal agent of wheat glum blotch) and incubated in a saturated atmosphere at 20° C. for 48 h, and then moved to a growth chamber at 22° C. for 5 days, after which disease ratings were made.

[4] = 40 ppm (marked *), 0 = no control
[5] = 200 ppm, 0 = no control relative to controls

| SMILES | Test J disease control rating (Septoria tritici; 40 ppm (marked *)) | Test K disease control rating ([1]; 40 ppm (marked *)) | Test L disease control rating ([2]; 40 ppm (marked *)) | Test A disease control rating (Pythium aphanidermatum; 200 ppm) [%] | Test B disease control rating ([3]; 40 ppm (marked *)) | Test F disease control rating (Phytophthora infestans; 200 ppm, 0 = no control) [%] | Test G disease control rating (Rhizoctonia oryzae; 40 ppm (marked *)) | Test E disease control rating (Botrytis cinerea; 40 ppm (marked *)) | Test I disease control rating (fusarium graminearium; 200 ppm, 0 = no control) [%] | Test D disease control rating (Plasmopara viticola; 200 ppm, 0 = no control) [%] | Test H disease control rating (Septoria nodorum; 40 ppm (marked *)) | Test A disease control rating (Pythium aphanidermatum; 40 ppm (marked *)) | also measured |
| --- | --- | --- | --- | --- | --- | --- | --- | --- | --- | --- | --- | --- | --- |
| CCC(C)Cn1c(-c2c(F)cccc2F)c(Cl)nc(C(=O)NCCO)c1=O (stereo not shown) [compound 349] | 25* % | 96* % | 0* % | 0 | 0* % | 0 | 0* % | 0* % | 0 | 0 | 0* % |  |  |
| CC(C)Cn1c(-c2c(F)cccc2F)c(Cl)nc(-c2cnccn2)c1=O [compound 350] |  |  |  | 80 |  | 0 |  |  | 80 | 0 |  |  | Test J disease control rating (Septoria tritici; 200 ppm): 85%; Test K disease control rating ([1]; 200 ppm): 99%; Test L disease control rating ([2]; 200 ppm): 86%; Test B disease control rating ([3]; 200 ppm): 0%; Test G disease control rating (Rhizoctonia oryzae; 200 ppm): 99%; Test E disease control rating (Botrytis cinerea; 200 ppm): 98%; Test H disease control rating (Septoria nodorum; 200 ppm): 98% |
| O=c1c(-n2cccn2)nc(Cl)c(-c2c(F)cc(F)cc2F)n1-c1cccc(Br)c1 [compound 351] | 100* % | 100* % | 100* % | 0 | 99* % | 0 | 0* % | 99* % | 78 | 0 | 99* % |  |  |
| O=c1c(-n2cccn2)nc(Cl)c(-c2c(F)cc(F)cc2F)n1-c1ccc(Br)cc1 [compound 352] | 100* % | 99* % | 81* % | 0 | 99* % | 0 | 31* % | 99* % | 63 | 0 | 97* % |  |  |
| O=c1c(-n2cccn2)nc(Cl)c(-c2c(F)cc(F)cc2F)n1-c1cccc(C(F)(F)F)c1 [compound 353] | 100* % | 91* % | 79* % | 0 | 16* % | 0 | 0* % | 98* % | 0 | 0 | 98* % |  |  |
| O=c1c(-n2cccn2)nc(Cl)c(-c2c(F)cc(F)cc2F)n1-c1ccc(C(F)(F)F)cc1 [compound 354] | 100* % | 97* % | 48* % | 0 | 9* % | 0 | 47* % | 95* % | 0 | 0 | 91* % |  |  |
| Cc1nc(-c2ccccn2)c(=O)n(-c2ccccc2)c1-c1c(F)cccc1F [compound 359] | 85* % | 0* % | 0* % |  | 0* % |  | 0* % | 0* % |  |  | 0* % | 81* % | Test F disease control rating (Phytophthora infestans; [4]): 0* %; Test I disease control rating (fusarium graminearium; [4]): 65* %; Test D disease control rating (Plasmopara viticola; [4]): 8* % |
| O=c1c(-n2cccn2)nc(Cl)c(-c2c(F)cccc2F)n1-c1ccccc1Br [compound 360] | 100* % | 100* % | 99* % | 0 | 0* % | 0 | 65* % | 99* % | 86 | 0 | 100* % |  |  |
| O=c1c(-n2cccn2)nc(Cl)c(-c2c(F)cccc2F)n1C1CC1 [compound 361] | 3* % | 83* % | 0* % | 0 | 0* % | 0 | 31* % | 92* % | 0 | 0 | 98* % |  |  |
| O=c1c(-n2cccn2)nc(Cl)c(-c2c(F)cccc2F)n1C1CC1c1ccccc1 (stereo not shown) [compound 362] | 0* % | 0* % | 0* % | 0 | 0* % | 0 | 0* % | 0* % | 0 | 0 | 0* % |  |  |
| O=c1c(-n2cccn2)nc(Cl)c(-c2c(F)cccc2F)n1C1CCC1 [compound 363] | 59* % | 100* % | 99* % | 0 | 0* % | 0 | 93* % | 99* % | 0 | 0 | 100* % |  |  |
| CC(C)Cn1c(-c2c(F)cccc2F)c(Cl)nc(-c2cnccn2)c1=O.Cl [compound 364] | 0* % | 92* % | 88* % | 0 | 0* % | 0 | 16* % | 99* % | 82 | 0 | 0* % |  |  |
| O=c1c(-n2cccn2)nc(Cl)c(-c2c(F)cc(F)cc2F)n1-c1cccc(Cl)c1 [compound 373] | 96* % | 100* % | 100* % |  | 99* % |  | 93* % | 100* % |  |  | 99* % | 0* % | Test F disease control rating (Phytophthora infestans; [4]): 0* %; Test I disease control rating (fusarium graminearium; [4]): 78* %; Test D disease control rating (Plasmopara viticola; [4]): 0* % |
| Cc1ccn(-c2nc(Cl)c(-c3c(F)cc(F)cc3F)n(-c3cccc(Cl)c3)c2=O)n1 [compound 374] | 100* % | 100* % | 100* % |  | 100* % |  | 78* % | 99* % |  |  | 100* % | 0* % | Test F disease control rating (Phytophthora infestans; [4]): 0* %; Test I disease control rating (fusarium graminearium; [4]): 0* %; Test D disease control rating (Plasmopara viticola; [4]): 0* % |
| O=c1c(-n2cccn2)nc(Cl)c(-c2c(F)cc(F)cc2F)n1-c1ccccc1Cl [compound 375] | 100* % | 100* % | 100* % |  | 100* % |  | 95* % | 99* % |  |  | 100* % | 0* % | Test F disease control rating (Phytophthora infestans; [4]): 0* %; Test I disease control rating (fusarium graminearium; [4]): 80* %; Test D disease control rating (Plasmopara viticola; [4]): 0* % |
| Cc1ccn(-c2nc(Cl)c(-c3c(F)cc(F)cc3F)n(-c3ccccc3Cl)c2=O)n1 [compound 376] | 100* % | 100* % | 100* % |  | 100* % |  | 98* % | 99* % |  |  | 100* % | 0* % | Test F disease control rating (Phytophthora infestans; [4]): 0* %; Test I disease control rating (fusarium graminearium; [4]): 0* %; Test D disease control rating (Plasmopara viticola; [5]): 40% |
| O=c1c(-n2cccn2)nc(Cl)c(-c2c(F)cc(F)cc2F)n1Cc1ccc(Br)cc1 [compound 377] | 100* % | 98* % | 94* % |  | 31* % |  | 0* % | 99* % |  |  | 0* % | 0* % | Test F disease control rating (Phytophthora infestans; [5]): 0%; Test I disease control rating (fusarium graminearium; [5]): 0%; Test D disease control rating (Plasmopara viticola; [4]): 0* % |
